Read-outs that look alike come from different tables or passages of the source.
What was measured:
HDF cells [1] = test: Apoptosis assay (Annexin V/PI flow cytometry), HDF; conditions: Cu 0.5 mmol/L, 24 h
Description: (§2) HEKa and HDF cells seeded in 12-well plates (4×10^4 cells/well) were incubated with PPCN, CuSO4, PCuSO4, CMOF or PCMOF (Cu: 0.5 mmol/L) for 24 h. Cells were harvested, washed twice with ice-cold PBS, stained with Alexa Fluor 488 conjugated Annexin V and PI for 15 min at room temperature in dark, and then analyzed by flow cytometry.

HEKa cells [2] = test: Apoptosis assay (Annexin V/PI flow cytometry), HEKa; conditions: Cu 0.5 mmol/L, 24 h
Description: as §2

HDF cells [3] = test: MTT cytotoxicity assay, HDF; conditions: 48 h
Description: (§3) HEKa and HDF cells seeded in 96-well plates (5×10^3 cells/well) were incubated with a series of concentrations of PPCN, CuSO4, PCuSO4, CMOF or PCMOF for 48 h. Then, MTT solution was added to each well to a concentration of 0.5 mg/mL and incubated for an additional 4 h. After that, the medium was removed and 100 μL of dimethyl sulfoxide was added to dissolve crystals formed by living cells. Absorbance at 570 nm was measured using a microplate reader. Cell viability was expressed as a percentage of the absorbance to that of the control experiment without treatment.

HEKa cells [4] = test: Scratch assay (cell migration), HEKa; format: cell-based, human; conditions: Cu 1×10^−3 mmol/L
Description: (§1) HEKa and HDF cells were seeded in 24-well plates (2×10^4 cells/well) and allowed to form a confluent monolayer. After starvation with FBS-free medium for 24 h, the cell monolayer was scratched in a straightline using 200 μL pipette tip to mimic an incisional wound. […] At desired time intervals, cells were photographed and cell migration rate was calculated using the formula shown as below: […]

HEKa cells [5] = test: MTT cytotoxicity assay, HEKa; conditions: 48 h
Description: as §3

[6] = ABTS free radical scavenging assay; format: biochemical; conditions: within 48 hrs, 37° C.
Description: The ability of PCMOF to scavenge the free radical cation, 2,2′-azino-bis(3-ethylbenzthiazoline-6-sulfonic acid) (ABTS) was assessed. […] A stock solution of 7 mM ABTS and 2.45 mM sodium persulfate in MQ water was prepared and left overnight in the dark at room temperature, after which the solution was sequentially filtered with 0.45 μm filter. […] At each time point, ABTS solution was sampled, diluted with MQ water 1:8 and the absorbance measured at 734 nm. All measurements were performed in triplicate. The antiradical activity was measured as % inhibition of free radicals by measuring the decrease in absorbance compared to PBS solutions at different time points.

HDF cells [7] = test: Scratch assay (cell migration), HDF; format: cell-based, human; conditions: 54 hrs, Cu 1×10^−3 mmol/L
Description: as §1

HEKa cells [8] = system: HEKa cells
Description: as §3

HDF cells [9] = system: HDF cells
Description: as §3

Compound | cell apoptosis (HDF cells [1]) [%] | cell apoptosis (HEKa cells [2]) [%] | cytotoxicity (MTT) (HDF cells [3]) | effect on wound closure versus blank (HEKa cells [4]; 8 h) | wound closure rate (HEKa cells [4]; 30 hrs) [%] | cytotoxicity (MTT) (HEKa cells [5]) | ABTS radicals scavenged [6] | wound closure rate (HDF cells [7]) [%] | cytotoxicity (MTT) (HEKa cells [8]) | cytotoxicity (MTT) (HDF cells [9])
O=S(=O)([O-])[O-].[Cu+2] [CuSO4, Copper sulfate] | 97.84 | 78.79 | increased with increasing concentrations | significant increase | 56.73 | increased with increasing concentrations | didn't present a free radical scavenging effect | 34.15 |  | 
poly(polyethyleneglycol citrate-co-N-isopropylacrylamide) [PPCN] |  |  |  |  |  |  |  |  | not toxic | not toxic

— US10561761B2, “Polymer metal-organic framework composites” (Northwestern University, priority 2014, dated 2020)
